# Measured values published in patent publication US9877501B2, “Stevia composition” (PureCircle Sdn Bhd, priority 2011, dated 2018).
# Like-named read-outs stand apart in the source and are kept apart here.
# Experiments:
# [1] = cited from earlier work
# [2] = carbonated beverages; Chang and Cook 1983; cited from earlier work
# [3] = Sensory evaluation of zero-calorie carbonated beverage samples by 20 panelists; details: 0.050% stevia composition
# Protocol: The sensory properties were evaluated by 20 panelists.
# [4] = sensory evaluations, Crammer and Ikan 1986
Compound,"times sweeter than sucrose ([1]; Tanaka 1987, Phillips 1989)","times sweeter than sucrose [1, 4]",heat and pH stability [2],also measured
C=C1C[C@@]23CC[C@H]4[C@@](C)(CCC[C@@]4(C)C(=O)O[C@@H]4O[C@H](CO)[C@@H](O)[C@H](O)[C@H]4O)[C@@H]2CC[C@]1(O[C@@H]1O[C@H](CO)[C@@H](O)[C@H](O)[C@H]1O[C@@H]1O[C@@H](C)[C@H](O)[C@@H](O)[C@H]1O)C3 [Dulcoside A],30 times,,,
"C=C1C[C@@]23CC[C@H]4[C@@](C)(CCC[C@@]4(C)C(=O)O[C@@H]4O[C@H](CO)[C@@H](O)[C@H](O)[C@H]4O)[C@@H]2CC[C@]1(O[C@@H]1O[C@H](CO)[C@@H](O)[C@H](O[C@@H]2O[C@H](CO)[C@@H](O)[C@H](O)[C@H]2O)[C@H]1O[C@@H]1O[C@H](CO)[C@@H](O)[C@H](O)[C@H]1O)C3 [Reb A, rebaudioside A]",,350-450 times,confirmed their heat and pH stability,"sensory attributes among major steviol glycosides ([1]; Tanaka 1987, Phillips 1989): the least astringent, the least bitter, and the least persistent aftertaste; Number of panelists detected the attribute: Aftertaste [3]: 12; Number of panelists detected the attribute: Astringent taste [3]: 9; Number of panelists detected the attribute: Bitter taste [3]: 10"
C=C1C[C@@]23CC[C@H]4[C@@](C)(CCC[C@@]4(C)C(=O)O[C@@H]4O[C@H](CO)[C@@H](O)[C@H](O)[C@H]4O)[C@@H]2CC[C@]1(O[C@@H]1O[C@H](CO)[C@@H](O)[C@H](O)[C@H]1O[C@@H]1O[C@H](CO)[C@@H](O)[C@H](O)[C@H]1O)C3 [stevioside],110-270 times,,confirmed their heat and pH stability,
Rebaudioside B [reb B],,300-350 times,,
rebaudioside C,40-60 times,,,
